{"source": "patent US9422297B2", "about": "“Tricyclic compounds having cytostatic and/or cytotoxic activity and methods of use thereof” (Duquesne University of the Holy Ghost, priority 2007, dated 2016)", "type_in_all_cases": "cell-based", "key": {"[1]": {"system": "SNB-75", "test": "NCI In-Vitro Testing, CNS Cancer"}, "[2]": {"system": "U251", "test": "NCI In-Vitro Testing, CNS Cancer"}, "[3]": {"system": "M14", "test": "NCI In-Vitro Testing, Melanoma"}, "[4]": {"system": "OVCAR-4", "test": "NCI In-Vitro Testing, Ovarian Cancer"}, "[5]": {"system": "SK-OV-3", "test": "NCI In-Vitro Testing, Ovarian Cancer"}, "[6]": {"system": "HS 576T", "test": "NCI In-Vitro Testing, Breast Cancer"}}}
{"smiles": "Nc1nc2c(c(Nc3ccc(Cl)cc3)n1)-c1ccccc1C2", "note": "[AAG145-136]", "values": [{"measurement": "GI50", "setting": "[1]", "value": "5.03E−6", "unit": "Molar"}, {"measurement": "LC50", "setting": "[1]", "value": ">1.00E−4", "unit": "Molar"}, {"measurement": "TGI", "setting": "[1]", "value": "6.44E−5", "unit": "Molar"}, {"measurement": "Percent Growth", "setting": "[1]; Log10 Concentration −4.0 Molar", "value": "−10", "unit": "%"}, {"measurement": "Percent Growth", "setting": "[1]; Log10 Concentration −5.0 Molar", "value": 41, "unit": "%"}, {"measurement": "Percent Growth", "setting": "[1]; Log10 Concentration −6.0 Molar", "value": 71, "unit": "%"}, {"measurement": "Percent Growth", "setting": "[1]; Log10 Concentration −7.0 Molar", "value": 92, "unit": "%"}, {"measurement": "Percent Growth", "setting": "[1]; Log10 Concentration −8.0 Molar", "value": 95, "unit": "%"}, {"measurement": "GI50", "setting": "[2]", "value": "1.84E−7", "unit": "Molar"}, {"measurement": "LC50", "setting": "[2]", "value": ">1.00E−4", "unit": "Molar"}, {"measurement": "TGI", "setting": "[2]", "value": "5.66E−5", "unit": "Molar"}, {"measurement": "Percent Growth", "setting": "[2]; Log10 Concentration −4.0 Molar", "value": "−6", "unit": "%"}, {"measurement": "Percent Growth", "setting": "[2]; Log10 Concentration −5.0 Molar", "value": 19, "unit": "%"}, {"measurement": "Percent Growth", "setting": "[2]; Log10 Concentration −6.0 Molar", "value": 29, "unit": "%"}, {"measurement": "Percent Growth", "setting": "[2]; Log10 Concentration −7.0 Molar", "value": 53, "unit": "%"}, {"measurement": "Percent Growth", "setting": "[2]; Log10 Concentration −8.0 Molar", "value": 98, "unit": "%"}, {"measurement": "GI50", "setting": "[3]", "value": "4.31E−7", "unit": "Molar"}, {"measurement": "LC50", "setting": "[3]", "value": ">1.00E−4", "unit": "Molar"}, {"measurement": "TGI", "setting": "[3]", "value": ">1.00E−4", "unit": "Molar"}, {"measurement": "Percent Growth", "setting": "[3]; Log10 Concentration −4.0 Molar", "value": 34, "unit": "%"}, {"measurement": "Percent Growth", "setting": "[3]; Log10 Concentration −5.0 Molar", "value": 21, "unit": "%"}, {"measurement": "Percent Growth", "setting": "[3]; Log10 Concentration −6.0 Molar", "value": 31, "unit": "%"}, {"measurement": "Percent Growth", "setting": "[3]; Log10 Concentration −7.0 Molar", "value": 84, "unit": "%"}, {"measurement": "Percent Growth", "setting": "[3]; Log10 Concentration −8.0 Molar", "value": 102, "unit": "%"}, {"measurement": "GI50", "setting": "[4]", "value": "4.16E−6", "unit": "Molar"}, {"measurement": "LC50", "setting": "[4]", "value": ">1.00E−4", "unit": "Molar"}, {"measurement": "TGI", "setting": "[4]", "value": ">1.00E−4", "unit": "Molar"}, {"measurement": "Percent Growth", "setting": "[4]; Log10 Concentration −4.0 Molar", "value": 19, "unit": "%"}, {"measurement": "Percent Growth", "setting": "[4]; Log10 Concentration −5.0 Molar", "value": 30, "unit": "%"}, {"measurement": "Percent Growth", "setting": "[4]; Log10 Concentration −6.0 Molar", "value": 82, "unit": "%"}, {"measurement": "Percent Growth", "setting": "[4]; Log10 Concentration −7.0 Molar", "value": 84, "unit": "%"}, {"measurement": "Percent Growth", "setting": "[4]; Log10 Concentration −8.0 Molar", "value": 83, "unit": "%"}, {"measurement": "GI50", "setting": "[5]", "value": "2.09E−6", "unit": "Molar"}, {"measurement": "LC50", "setting": "[5]", "value": ">1.00E−4", "unit": "Molar"}, {"measurement": "TGI", "setting": "[5]", "value": ">1.00E−4", "unit": "Molar"}, {"measurement": "Percent Growth", "setting": "[5]; Log10 Concentration −4.0 Molar", "value": 16, "unit": "%"}, {"measurement": "Percent Growth", "setting": "[5]; Log10 Concentration −5.0 Molar", "value": 36, "unit": "%"}, {"measurement": "Percent Growth", "setting": "[5]; Log10 Concentration −6.0 Molar", "value": 57, "unit": "%"}, {"measurement": "Percent Growth", "setting": "[5]; Log10 Concentration −7.0 Molar", "value": 97, "unit": "%"}, {"measurement": "Percent Growth", "setting": "[5]; Log10 Concentration −8.0 Molar", "value": 106, "unit": "%"}, {"measurement": "GI50", "setting": "[6]", "value": "2.22E−6", "unit": "Molar"}, {"measurement": "LC50", "setting": "[6]", "value": ">1.00E−4", "unit": "Molar"}, {"measurement": "TGI", "setting": "[6]", "value": "2.94E−5", "unit": "Molar"}, {"measurement": "Percent Growth", "setting": "[6]; Log10 Concentration −4.0 Molar", "value": "−13", "unit": "%"}, {"measurement": "Percent Growth", "setting": "[6]; Log10 Concentration −5.0 Molar", "value": 11, "unit": "%"}, {"measurement": "Percent Growth", "setting": "[6]; Log10 Concentration −6.0 Molar", "value": 71, "unit": "%"}, {"measurement": "Percent Growth", "setting": "[6]; Log10 Concentration −7.0 Molar", "value": 97, "unit": "%"}, {"measurement": "Percent Growth", "setting": "[6]; Log10 Concentration −8.0 Molar", "value": 104, "unit": "%"}]}
